Read-outs that look alike come from different tables or passages of the source. Blank lines part the entries; values can stand above or below the compound they belong to.
Key:
[1] = tested on: Uterine Eosinophil Peroxidase (EPO); assay: Uterine Eosinophil Peroxidase (EPO) Assay in ovariectomized rats; type: in vivo, rat (female Sprague Dawley); set-up: Uterine EPO (Vmax): unit not given here
Description: (§1) Seventy-five day old female Sprague Dawley rats (weight range of 200 to 225 g) were obtained from Charles River Laboratories (Portage, Mich.). The animals were either bilaterally ovariectomized (OVX) or exposed to a Sham surgical procedure at Charles River Laboratories, and then shipped after one week. Upon arrival, they were housed in metal hanging cages in groups of 3 or 4 per cage and had ad libitum access to food (calcium content approximately 0.5%) and water for one week. Room temperature was maintained at 22.2°±1.70° C. with a minimum relative humidity of 40%. The photoperiod in the room was 12 hours light and 12 hours dark.
(§2) After a one week acclimation period (therefore, two weeks post-OVX) daily dosing with test compound was initiated. […] Animals were dosed daily for 4 days. Following the dosing regimen, animals were weighed and anesthetized with a ketamine: Xylazine (2:1, V:V) mixture and a blood sample was collected by cardiac puncture. The animals were then sacrificed by asphyxiation with CO2, the uterus was removed through a midline incision, and a wet uterine weight was determined.
Uteri were kept at 4° C. until time of enzymatic analysis. The uteri were then homogenized in 50 volumes of 50 mM Tris buffer (pH-8.0) containing 0.005% Triton X-100. Upon addition of 0.01% hydrogen peroxide and 10 mM O-phenylenediamine (final concentrations) in Tris buffer, increase in absorbance was monitored for one minute at 450 nm. The presence of eosonophils in the uterus is an indication of estrogenic activity of a compound. The maximal velocity of a 15 second interval was determined over the initial, linear portion of the reaction curve.
As is expressed in the data below, estrogenicity also was assessed by evaluating the adverse response of eosinophil infiltration into the uterus.
(§3) The data presented in Table 1 below reflects the response of 5 to 6 rats per treatment.

[2] = tested on: serum cholesterol, ovariectomized rats; assay: Serum cholesterol in ovariectomized rats (4 days daily oral dosing); type: in vivo, rat (female Sprague Dawley); settings: Rattus norvegicus, 96 h, read-out: Serum Cholesterol (% decrease vs. OVX); for inhibition in vivo at 0.1 mg/kg: 0.1 mg/kg PO; for inhibition in vivo at 1 mg/kg: 1.0 mg/kg PO; for inhibition in vivo at 10 mg/kg: 10.0 mg/kg PO
Description: (§4) In the examples illustrating the methods, a postmenopausal model was used in which effects of different treatments upon circulating lipids were determined.
as §1, §2
Blood samples were allowed to clot at room temperature for 2 hours, and serum was obtained following centrifugation for 10 minutes at 3000 rpm. Serum cholesterol was determined using a Boehringer Mannheim Diagnostics high performance cholesterol assay. Briefly the cholesterol was oxidized to cholest-4-en-3-one and hydrogen peroxide. The hydrogen peroxide was then reacted with phenol and 4-aminophenazone in the presence of peroxidase to produce a p-quinone imine dye, which was read spectrophotemetrically at 500 nm. Cholesterol concentration was then calculated against a standard curve. The entire assay was automated using a Biomek Automated Workstation. […]
as §3

[3] = tested on: MCF-7 breast adenocarcinoma cells; assay: MCF-7 Proliferation Assay (tritiated thymidine); type: cell-based
Description: MCF-7 breast adenocarcinoma cells (ATCC HTB 22) were maintained in MEM (minimal essential medium, phenol red-free, Sigma, St. Louis, Mo.) supplimented with 10% fetal bovine serum (FBS) (V/V), L-glutamine (2 mM), sodium pyruvate (1 mM), HEPES {(N-[2-hydroxyethyl]piperazine-N'-[2-ethanesulfonic acid]10 mM}, non-essential amino acids and bovine insulin (1 ug/mL) (maintenance medium). Ten days prior to assay, MCF-7 cells were switched to maintenance medium supplemented with 10% dextran coated charcoal stripped fetal bovine serum (DCC-FBS) assay medium) in place of 10% FBS to deplete internal stores of steroids. MCF-7 cells were removed from maintenance flasks using cell dissociation medium (Ca++/Mg++ free HBSS (phenol red-free) supplemented with 10 mM HEPES and 2 mM EDTA). Cells were washed twice with assay medium and adjusted to 80,000 cells/mL. Approximately […] (8,000 cells) were added to flat-bottom microculture wells (Costar 3596) and incubated at 37° C. in a 5% CO2 humidified incubator for 48 hours to allow for cell adherence and equilibration after transfer. Serial dilutions of drugs or DMSO as a diluent control were prepared in assay medium and […] to triplicate microcultures followed by […] assay medium for a final volume of […]. After an additional 48 hours at 37° C. in a 5% CO2 humidified incubator, microcultures were pulsed with tritiated thymidine (1 uCi/well) for 4 hours. Cultures were terminated by freezing at -70° C. for 24 hours followed by thawing and harvesting of microcultures using a Skatron Semiautomatic Cell Harvester. Samples were counted by liquid scintillation using a Wallac BetaPlace b counter. Results in Table 4 below show the IC50 for certain compounds of the instant invention. […]

[4] = tested on: Distal Femur Metaphysis, ovariectomized rats; assay: Osteoporosis Test Procedure: distal femur metaphysis X-ray image analysis; type: in vivo, rat; settings: 35 days
Description: Following the General Preparation Procedure, infra, the rats were treated daily for 35 days (6 rats per treatment group) and sacrificed by carbon dioxide asphyxiation on the 36th day. The 35 day time period was sufficient to allow maximal reduction in bone density, measured as described herein. At the time of sacrifice, the uteri were removed, dissected free of extraneous tissue, and the fluid contents were expelled before determination of wet weight in order to confirm estrogen deficiency associated with complete ovariectomy. […] The uteri were then placed in 10% neutral buffered formalin to allow for subsequent histological analysis. The right femurs were excised and digitilized x-rays generated and analyzed by an image analysis program (NIH image) at the distal metaphysis. The proximal aspect of the tibiae from these animals were also scanned by quantitative computed tomography. […] Distal femur metaphysis and proximal tibiae data presented in Tables 2 and 3 below, respectively are the results of formula I compound treatments compared to intact and ovariectomized test animals. Results are reported as percent protection relative to ovariectomy.

[5] = tested on: uterus, ovariectomized rats; assay: Uterine weight in ovariectomized rats (4 days daily oral dosing); type: in vivo, rat (female Sprague Dawley); settings: Rattus norvegicus, 96 h, read-out: Uterine weight (% increase vs. OVX); for change in vivo at 0.1 mg/kg: 0.1 mg/kg PO; for change in vivo at 1 mg/kg: 1.0 mg/kg PO; for change in vivo at 10 mg/kg: 10.0 mg/kg PO
Description: as §4, §1, §2
This uterine response to estrogen is well recognized in the art.
as §3

[6] = Homo sapiens, MCF7, 48 hours, read-out: IC50

Compound: COc1ccc(-c2sc3cc(OC)ccc3c2C(=O)c2ccc(OCCN3CCCCC3)cc2)c(OC)c1 [Example 17, [2-(2,4-Dimethoxyphenyl)-6-methoxybenzo[b]thien-3-yl] [4-[2-(1-piperidinyl)ethoxy]phenyl]methanone]
- Uterine EPO (Vmax) ([1]; 0.1 mg/kg PO): 20.4
- Uterine EPO (Vmax) ([1]; 1.0 mg/kg PO): 102.0
- Uterine EPO (Vmax) ([1]; 10.0 mg/kg PO): 20.1
- inhibition in vivo at 0.1 mg/kg [2]: 51.4%
- inhibition in vivo at 1 mg/kg [2]: 68.5%
- inhibition in vivo at 10 mg/kg [2]: 67.2%
- IC50 [3, 6]: 300 nM
- change in vivo at 0.1 mg/kg [5]: 40.1%
- change in vivo at 1 mg/kg [5]: 66.1%
- change in vivo at 10 mg/kg [5]: 53.7%

Compound: COc1ccc2c(C(=O)c3ccc(OCCN4CCCCC4)cc3)c(-c3ccc(C(F)(F)F)cc3)sc2c1 [Example 19, [2-(4-Trifluoromethylphenyl)-6-methoxybenzo[b]thien-3-yl][4-[2-(1-piperidinyl)ethoxy]phenyl]methanone]
- Uterine EPO (Vmax) ([1]; 0.1 mg/kg PO): 6.8
- Uterine EPO (Vmax) ([1]; 1.0 mg/kg PO): 4.3
- Uterine EPO (Vmax) ([1]; 10.0 mg/kg PO): 4
- inhibition in vivo at 0.1 mg/kg [2]: 22.3%
- inhibition in vivo at 1 mg/kg [2]: 3.1%
- inhibition in vivo at 10 mg/kg [2]: 20.6%
- IC50 ([3]; 48 hours): Not active
- change in vivo at 0.1 mg/kg [5]: 10.3%
- change in vivo at 1 mg/kg [5]: 15.6%
- change in vivo at 10 mg/kg [5]: 16.6%

Compound: O=C(c1ccc(OCCN2CCCCC2)cc1)c1c(-c2ccc(C(F)(F)F)cc2)sc2cc(O)ccc12 [Example 20, [2-(4-Trifluoromethylphenyl)-6-hydroxybenzo[b]thien-3-yl][4-[2-(1-piperidinyl)ethoxy]phenyl]methanone]
- Uterine EPO (Vmax) ([1]; 0.1 mg/kg PO): 1.8
- Uterine EPO (Vmax) ([1]; 1.0 mg/kg PO): 7
- Uterine EPO (Vmax) ([1]; 5.0 mg/kg PO): 16.4
- inhibition in vivo at 0.1 mg/kg [2]: 45.5%
- inhibition in vivo at 1 mg/kg [2]: 47.9%
- inhibition in vivo at 5 mg/kg ([2]; 5.0 mg/kg PO): 71.5%
- IC50 [3, 6]: 1000 nM
- change in vivo at 0.1 mg/kg [5]: -2%
- change in vivo at 1 mg/kg [5]: 7%
- change in vivo at 5 mg/kg ([5]; 5.0 mg/kg PO): 37.4%

Compound: COc1ccc2c(C(=O)c3ccc(OCCN4CCCCC4)cc3)c(-c3cccc(F)c3)sc2c1 [Example 21, [2-(3-Fluorophenyl)-6-methoxybenzo[b]thien-3-yl] [4-[2-(1-piperidinyl)ethoxy]phenyl]methanone]
- Uterine EPO (Vmax) ([1]; 0.1 mg/kg PO): 4.5
- Uterine EPO (Vmax) ([1]; 1.0 mg/kg PO): 4.8
- Uterine EPO (Vmax) ([1]; 10.0 mg/kg PO): 7.5
- inhibition in vivo at 0.1 mg/kg [2]: 1.4%
- inhibition in vivo at 1 mg/kg [2]: -12%
- inhibition in vivo at 10 mg/kg [2]: 60.5%
- IC50 [3, 6]: 500 nM
- change in vivo at 0.1 mg/kg [5]: 14.9%
- change in vivo at 1 mg/kg [5]: 4.1%
- change in vivo at 10 mg/kg [5]: 25.3%

Further lines, with some results ahead:

- IC50 [3, 6]: 0.3 nM
Compound: O=C(c1ccc(OCCN2CCCCC2)cc1)c1c(-c2ccc(O)c(F)c2)sc2cc(O)ccc12 [Example 2, [2-(3-fluoro-4-hydroxyphenyl)-6-hydroxybenzo[b]thien-3-yl][4-[2-(1-piperidinyl)ethoxy]phenyl]methanone]
- Uterine EPO (Vmax) ([1]; 0.01 mg/kg PO): 4.8
- Uterine EPO (Vmax) ([1]; 0.1 mg/kg PO): 4.8
- Uterine EPO (Vmax) ([1]; 1.0 mg/kg PO): 4.8
- Uterine EPO (Vmax) ([1]; 10.0 mg/kg PO): 3.6
- inhibition in vivo at 0.01 mg/kg ([2]; 0.01 mg/kg PO): 21.7%
- inhibition in vivo at 0.1 mg/kg [2]: 48.1%
- inhibition in vivo at 1 mg/kg [2]: 64.7%
- inhibition in vivo at 10 mg/kg [2]: 47.8%
- Distal Femur Metaphysis (X-ray Image Analysis-Gray Score), percent protection relative to ovariectomy ([4]; 0.01 mg/kg oral): 34.5%
- Distal Femur Metaphysis (X-ray Image Analysis-Gray Score), percent protection relative to ovariectomy ([4]; 0.1 mg/kg oral): 34.1%
- Distal Femur Metaphysis (X-ray Image Analysis-Gray Score), percent protection relative to ovariectomy ([4]; 1.0 mg/kg oral): 68.0%
- Distal Femur Metaphysis (X-ray Image Analysis-Gray Score), percent protection relative to ovariectomy ([4]; 10.0 mg/kg oral): 70.0%
- change in vivo at 0.01 mg/kg ([5]; 0.01 mg/kg PO): 3.2%
- change in vivo at 0.1 mg/kg [5]: 53.3%
- change in vivo at 1 mg/kg [5]: 53.7%
- change in vivo at 10 mg/kg [5]: 25.9%

- IC50 [3, 6]: 2 nM
Compound: COc1cc(O)ccc1-c1sc2cc(O)ccc2c1C(=O)c1ccc(OCCN2CCCCC2)cc1 [Example 18, [2-(4-Hydroxy-2-methoxyphenyl)-6-hydroxybenzo[b]thien-3-yl] [4-[2-(1-piperidinyl)ethoxy]phenyl]methanone]
- Uterine EPO (Vmax) ([1]; 0.1 mg/kg PO): 34.2
- Uterine EPO (Vmax) ([1]; 1.0 mg/kg PO): 81.9
- Uterine EPO (Vmax) ([1]; 10.0 mg/kg PO): 135.9
- inhibition in vivo at 0.1 mg/kg [2]: 58.8%
- inhibition in vivo at 1 mg/kg [2]: 79%
- inhibition in vivo at 10 mg/kg [2]: 71.6%
- change in vivo at 0.1 mg/kg [5]: 64.1%
- change in vivo at 1 mg/kg [5]: 69.2%
- change in vivo at 10 mg/kg [5]: 73.3%

- IC50 [3, 6]: 2.5 nM
Compound: O=C(c1ccc(OCCN2CCCCC2)cc1)c1c(-c2cccc(F)c2)sc2cc(O)ccc12 [Example 22, [2-(3-Fluorophenyl)-6-hydroxybenzothien-3-yl] [4-[2-(1-piperidinyl)ethoxy]phenyl]methanone]
- Uterine EPO (Vmax) ([1]; 0.1 mg/kg PO): 4.8
- Uterine EPO (Vmax) ([1]; 1.0 mg/kg PO): 7.8
- Uterine EPO (Vmax) ([1]; 10.0 mg/kg PO): 12.0
- inhibition in vivo at 0.1 mg/kg [2]: 18.6%
- inhibition in vivo at 1 mg/kg [2]: 62%
- inhibition in vivo at 10 mg/kg [2]: 67.3%
- change in vivo at 0.1 mg/kg [5]: 53.2%
- change in vivo at 1 mg/kg [5]: 62.8%
- change in vivo at 10 mg/kg [5]: 26.9%

- IC50 [3, 6]: 0.7 nM
Compound: Cc1ccccc1-c1sc2cc(O)ccc2c1C(=O)c1ccc(OCCN2CCCCC2)cc1 [Example 23, [2-(2-Methylphenyl)-6-hydroxybenzo[b]thien-3-yl] [4-[2-(1-piperidinyl)ethoxy]phenyl]methanone]
- Uterine EPO (Vmax) ([1]; 0.1 mg/kg PO): 12.0
- Uterine EPO (Vmax) ([1]; 1.0 mg/kg PO): 8.4
- Uterine EPO (Vmax) ([1]; 10.0 mg/kg PO): 8.1
- inhibition in vivo at 0.1 mg/kg [2]: 31.7%
- inhibition in vivo at 1 mg/kg [2]: 38.6%
- inhibition in vivo at 10 mg/kg [2]: 29.3%
- change in vivo at 0.1 mg/kg [5]: 8.5%
- change in vivo at 1 mg/kg [5]: 12%
- change in vivo at 10 mg/kg [5]: 10.9%

Source: US5998442A, “Benzo [B] thiophene compounds, and compositions for treating bone loss, and hyperlipidemia” (Eli Lilly and Company, priority 1997, dated 1999)
